{"source": "patent US11596633B2", "about": "“SHP2 inhibitor compositions and methods for treating cancer” (Revolution Medicines, Inc., priority 2017, dated 2023)", "key": {"H358 KRas G12C xenograft": {"test_system": "H358 KRas G12C xenograft", "type": "in vivo", "conditions": "daily PO, Compound C 10 mg/kg, Trametinib 1 mg/kg, Cobimetinib 2.5 mg/kg, Ulixertinib 100 mg/kg", "description": "The positive control, paclitaxel (30 mg/kg iv) in 5% ethanol, 5% cremophor EL, in 5% dextrose in deionized water was administered once every five days. Trametinib (1 mg/kg PO in 0.5% Methylcellulose+0.5% Tween 80) was administered by oral gavage daily. The study endpoint was defined as a mean tumor volume of 2000 mm^3 in the control group or 22 days, whichever came first. Mean tumor volume data are reported for all animals that remained on study.\n(§1) The effects on tumor cell growth in vivo of another SHP2 inhibitor (Compound C) as a monotherapy or as a combination therapy with various Ras pathway inhibitors were evaluated in the NSCLC H358 KRas^G12C and MIA-Pa-Ca-2 xenograft models as described above in Example 1, except that the test article and vehicle formulation was (2% HPMC E-50, 0.5% Tween 80 in 50 mM Sodium Citrate Buffer, pH 4.0)+/− the inhibitor compound(s). […] Test compounds or vehicle control were administered by oral gavage daily. The study endpoint was defined as a mean tumor volume of 2000 mm^3 in the control group or 22 days post-dosing, whichever came first. Mean tumor volume data are reported for all animals that remained on study."}, "MIA-Pa-Ca-2 xenograft": {"test_system": "MIA-Pa-Ca-2 xenograft", "assay": "MIA-Pa-Ca-2 xenograft, Compound C with Abemaciclib (Example 8)", "type": "in vivo, mice", "conditions": "Compound C 30 mg/kg PO, Abemaciclib 50 mg/kg", "text": "Similar methods were used to evaluate efficacy of test articles in the pancreatic MiaPaca-2 KRas^G12C xenograft model. Balb/c nude mice (6-8 weeks old) were implanted with […] MiaPaca-2 tumor cells in 50% Matrigel subcutaneously in the flank. […] Administration of test articles and study design are as described above for H358 xenograft model.\nas §1"}, "p-ERK1/2 in H358 cells": {"test_system": "p-ERK1/2 in H358 cells", "assay": "p-ERK AlphaLisa SureFire", "type": "cell-based, human", "conditions": "H358 cells (KRAS G12C)", "description": "(§2) Cells were plated at ˜20×10^3 cells per well and following overnight incubation were washed with serum-free media. Cells were then incubated for one hour with increasing concentrations of the test article in serum-free media containing 0.2% BSA prior to termination of the assay and measurement of pERK levels in cellular lysates by AlphaLisa SureFire Ultra kit conducted according to the manufacturer's instructions."}, "p-ERK1/2 in Calu-1 cells": {"test_system": "p-ERK1/2 in Calu-1 cells", "assay": "p-ERK AlphaLisa SureFire", "type": "cell-based, human", "conditions": "Calu-1 cells (KRAS G12C)", "description": "as §2"}, "p-ERK1/2 in H1792 cells": {"test_system": "p-ERK1/2 in H1792 cells", "assay": "p-ERK AlphaLisa SureFire", "type": "cell-based", "conditions": "H1792 cells (KRAS G12C)", "description": "as §2"}, "[1]": {"test_system": "RAS-GTP in NCI-H1838 cells", "assay": "RAS-GTP pulldown (Raf-RBD)", "type": "cell-based", "conditions": "NCI-H1838 (NF1 LOF), MEK inhibition by trametinib", "description": "(§3) To determine the effects of small molecules on levels of activated RAS-GTPase, cell lines of interest were cultured under standard 2D culture conditions. Cells were seeded and following overnight incubation incubated at 37° C. with vehicle (DMSO) or test article(s). After an appropriate incubation period, cells were washed and cell lysis buffer added to prepare a cell lysate. The levels of Ras-GTP in the lysates were determined using affinity purification of a Raf-RBD (Ras binding domain of Raf)/GTP-Ras complex. In one approach, the Pierce Active Ras Pulldown and Detection Kit was used. Briefly, clarified lysates (500 μg total protein, quantified by BCA) were mixed with glutathione resin, which had been preincubated with GST-Raf-RBD. The mixture was vortexed and incubated at 4° C. for 1 hour with gentle rocking. The resin was washed three times with lysis buffer and bound Ras-GTP eluted by addition of 2× reducing sample buffer. Eluted proteins were separated by SDS-PAGE using a 4-15% Tris-glycine gel (BioRad). Proteins were transferred to a nitrocellulose membrane for western blot using an anti-Ras antibody (Thermofisher, 1:200) and a Licor IRDye-800 anti-mouse secondary antibody (1:20,000). The Licor Odyssey CLx was used for visualization.\nas §3, with “resin” for “resin,”"}, "NCI-H358 xenograft": {"test_system": "NCI-H358 xenograft", "assay": "NCI-H358 xenograft, alone and with trametinib (Example 7)", "conditions": "trametinib 1 mg/kg", "protocol": "The effects of a SHP2 inhibitor on tumor cell growth in vivo were evaluated in the NSCLC H358 xenograft model using female athymic nude mice (6-8 weeks old). Mice were implanted with H358 tumor cells in 50% Matrigel (1×10^7 cells/animal) subcutaneously in the flank. Once tumors reached an average size of 200 mm^3 mice were randomized to treatment groups and administration of test article or vehicle (50 mM acetate buffer, pH 4.6 containing 10% captisol, unless otherwise indicated) initiated. […] Body weight and tumor volume (using calipers) was measured every other day until study endpoints."}, "[2]": {"test_system": "phosphorylated RTKs in MDA-MB-231 cells", "assay": "Phospho-RTK array", "type": "cell-based", "conditions": "MDA-MB-231 (KRAS G13D), 24 hours; selumetinib 5 μM, Compound A 1 and 5 μM", "description": "To determine the effects of test article(s) on levels of phosphorylated RTKs, MDA-MB231 cells were seeded in 6-well plates and incubated overnight in full growth medium. Cells were treated for 24 hours with selumetinib (5 μM) or Compound A (1 and 5 μM) or left untreated (DMSO control). Lysates were generated using the lysis buffer provided with the kit (Phospho-RTK Array; R&D systems) with inclusion of a protease inhibitor cocktail. To control for protein concentration, total protein levels were quantified using BCA reagent kit. The levels of phospho-RTK were determined according to the manufacturer's instructions."}}, "data": [{"smiles": "CC(C)Nc1cc(-c2c[nH]c(C(=O)N[C@H](CO)c3cccc(Cl)c3)c2)c(Cl)cn1", "note": "[Ulixertinib]", "values": [{"measurement": "tumor growth as a single agent compared to vehicle control", "setting": "H358 KRas G12C xenograft", "result": "significant tumor growth inhibition"}]}, {"smiles": "O=C(c1ccc(F)c(F)c1Nc1ccc(I)cc1F)N1CC(O)([C@@H]2CCCCN2)C1", "note": "[Cobimetinib]", "values": [{"measurement": "tumor growth as a single agent compared to vehicle control", "setting": "H358 KRas G12C xenograft", "result": "significant tumor growth inhibition"}]}, {"smiles": "CCN1CCN(Cc2ccc(Nc3ncc(F)c(-c4cc(F)c5nc(C)n(C(C)C)c5c4)n3)nc2)CC1", "note": "[Abemaciclib]", "values": [{"measurement": "tumor growth as a single agent compared to vehicle control", "setting": "MIA-Pa-Ca-2 xenograft", "result": "significant tumor growth inhibition"}]}, {"smiles": "C=CC(=O)N1CC(N2CCN(C(=O)CNc3cc(C4(C)CC4)c(Cl)cc3O)CC2)C1", "note": "[ARS-853, reference compound]", "values": [{"measurement": "inhibition of p-ERK1/2 levels", "setting": "p-ERK1/2 in H358 cells", "result": "sensitive"}, {"measurement": "inhibition of p-ERK1/2 levels", "setting": "p-ERK1/2 in Calu-1 cells", "result": "sensitive"}, {"measurement": "inhibition of p-ERK1/2 levels", "setting": "p-ERK1/2 in H1792 cells", "result": "sensitive"}]}, {"smiles": "CC(=O)Nc1cccc(-n2c(=O)n(C3CC3)c(=O)c3c(Nc4ccc(I)cc4F)n(C)c(=O)c(C)c32)c1", "note": "[Trametinib, reference compound]", "values": [{"measurement": "feedback-driven RAS-GTP accumulation", "setting": "[1]", "result": "caused feedback-driven RAS-GTP accumulation"}, {"measurement": "tumor growth as a single agent compared to vehicle control", "setting": "H358 KRas G12C xenograft", "result": "significant tumor growth inhibition"}, {"measurement": "tumor growth as compared to the vehicle control", "setting": "NCI-H358 xenograft; single agent, Compound B 10 and 30 mg/kg", "result": "significant tumor growth inhibition"}, {"measurement": "tumor growth inhibition, TGI", "setting": "NCI-H358 xenograft", "result": 79, "unit": "%"}]}, {"smiles": "Cn1cnc2c(F)c(Nc3ccc(Br)cc3Cl)c(C(=O)NOCCO)cc21", "note": "[selumetinib, Selumetinib, reference compound]", "values": [{"measurement": "feedback-driven p-RTK hyperactivation", "setting": "[2]", "result": "caused feedback-driven p-RTK hyperactivation"}]}]}
